How the values were obtained:
Ovine COX-1 = molecular target: T1, Ovine COX-1 (Ovis aries, UniProt P05979); assay: COX-1 in vitro enzymatic assay (PGE2 ELISA); assay type: biochemical; settings: for inhibition at 20 µM: compound at 20 μM
T1 construct: purchased Sigma-Aldrich
T1 sequence (P05979 25-600): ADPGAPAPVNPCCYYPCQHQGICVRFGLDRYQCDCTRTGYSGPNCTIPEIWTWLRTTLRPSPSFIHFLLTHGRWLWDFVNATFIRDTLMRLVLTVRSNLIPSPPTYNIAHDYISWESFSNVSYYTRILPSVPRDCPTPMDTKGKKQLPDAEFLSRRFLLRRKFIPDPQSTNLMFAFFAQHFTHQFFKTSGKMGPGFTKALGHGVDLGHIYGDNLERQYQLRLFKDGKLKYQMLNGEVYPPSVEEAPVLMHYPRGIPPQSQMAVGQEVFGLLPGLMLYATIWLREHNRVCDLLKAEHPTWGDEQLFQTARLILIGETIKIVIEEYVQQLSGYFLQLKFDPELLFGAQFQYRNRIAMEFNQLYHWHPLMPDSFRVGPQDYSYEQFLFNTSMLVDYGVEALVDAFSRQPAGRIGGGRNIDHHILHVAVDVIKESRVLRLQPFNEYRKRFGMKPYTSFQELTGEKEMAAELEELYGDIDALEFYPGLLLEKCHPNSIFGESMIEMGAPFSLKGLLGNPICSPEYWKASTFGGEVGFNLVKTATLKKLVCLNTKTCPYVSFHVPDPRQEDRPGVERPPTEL
Method: (§1) The inhibitory activity of compounds was tested using in vitro enzymatic assay. Ovine COX-1 (1 unit/reaction) or human recombinant COX-2 (0.5 unit/reaction; both enzymes Sigma-Aldrich, USA) was added to 180 µL of 100 mM Tris buffer (pH 8.0), containing 5 μM porcine hematin, 18 mM L-epinephrine, and 50 μM Na2EDTA. Ten µL of tested compound dissolved in DMSO or pure DMSO (as a blank) were added to the reaction.
(§2) Sigma-Aldrich, USA) was used as a reference inhibitor. After 5 min incubation at room temperature, reaction was initiated by 5 µL of arachidonic acid (10 µM) and incubated 20 min in 37°C. Then the reaction was stopped by 20 µL of formic acid (10% v/v). The concentration of prostaglandin E2 (PGE2) was measured with Prostaglandin E2 ELISA kit (Enzo Life Sciences, USA). Reaction mixture was diluted 1:15 in assay buffer (provided in the kit) and incubated according to the manufacturer instructions.
(§3) The concentration of PGE2 produced during the reaction was estimated according to absorbance […]
(§4) inhibitory activity was calculated as percentual inhibition of PGE2 production compared to blank. At first, the inhibitory activity of compounds was tested at 20 µM to see if there is any activity. IC50 […]
(§5) of COX-2. The level of percentual inhibition was chosen based on the percentual inhibition caused by […]
(§6) All the experiments were carried out in duplicates and repeated at least two times. To test whether increasing substrate concentration influences the activity of […]
(§7) reference compound. The inhibitory activity was calculated as percentual inhibition of PGE2 production compared to blank with respective concentration of AA. […]

human recombinant COX-2 = molecular target: T2, human recombinant COX-2 (Homo sapiens, UniProt P35354); assay: COX-2 in vitro enzymatic assay (PGE2 ELISA); assay type: biochemical; settings: for inhibition at 20 µM: compound at 20 μM; for inhibition of COX-2 (in words): at 50 μM
T2 construct: purchased Sigma-Aldrich
T2 sequence (P35354 18-604): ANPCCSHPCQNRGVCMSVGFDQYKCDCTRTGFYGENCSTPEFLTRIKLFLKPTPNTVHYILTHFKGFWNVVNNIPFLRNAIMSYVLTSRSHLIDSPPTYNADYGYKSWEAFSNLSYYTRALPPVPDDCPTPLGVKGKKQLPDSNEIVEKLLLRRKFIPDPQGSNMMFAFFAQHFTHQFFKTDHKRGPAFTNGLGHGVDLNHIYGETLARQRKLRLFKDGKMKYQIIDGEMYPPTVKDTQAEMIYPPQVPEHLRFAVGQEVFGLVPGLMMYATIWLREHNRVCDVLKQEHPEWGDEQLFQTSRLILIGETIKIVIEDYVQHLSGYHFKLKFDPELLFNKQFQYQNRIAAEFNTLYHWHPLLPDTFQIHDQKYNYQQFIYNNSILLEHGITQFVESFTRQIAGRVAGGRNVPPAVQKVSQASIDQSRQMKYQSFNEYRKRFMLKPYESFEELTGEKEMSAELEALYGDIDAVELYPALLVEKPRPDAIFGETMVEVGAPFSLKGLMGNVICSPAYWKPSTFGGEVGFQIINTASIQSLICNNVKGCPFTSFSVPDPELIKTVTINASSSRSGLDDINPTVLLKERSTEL
Method: as §1, §2, §3, §4, §5, §6, §7

Structure (SMILES)	inhibition at 20 µM (Ovine COX-1)	inhibition at 20 µM (human recombinant COX-2)	IC50 (human recombinant COX-2)	inhibition of COX-2 (in words) (human recombinant COX-2)	inhibitory activity in COX assays (in words) (Ovine COX-1; less than 50% inhibition on both COX isoforms considered inactive)
Cc1cc(Nc2nc(/C=C/c3ccccc3)nc3ccccc23)n[nH]1 [3j]	41.6%	13.8%	–	–	–
COc1cc(Nc2nc(/C=C/c3ccccc3)nc3ccccc23)cc(OC)c1 [3s]	23.1%	-14.1%	–	–	–
C(=C\c1nc(N2CCNCC2)c2ccccc2n1)/c1ccccc1 [3d]	31.2%	-4.94%	–	–	–
Fc1ccc(CNc2nc(N3CCOCC3)nc3cc(-c4cccs4)ccc23)cc1F [7o]	66%	-3.62%	> 50 µM	did not inhibit	–
C(=C\c1nc(Nc2ccccn2)c2ccccc2n1)/c1ccccc1 [3i]	17.7%	-11.1%	–	–	–
CCN(CC)c1nc(NCc2ccc(F)c(F)c2)c2ccc(-c3ccc(OC)cc3)cc2n1 [7n]	18%	14.6%	–	–	–
CCCCc1ccc(Nc2nc(/C=C/c3ccccc3)nc3ccccc23)cc1 [3n]	12.8%	5.59%	–	–	–
Fc1ccc(CNc2nc(Cl)nc3cc(Br)ccc23)cc1F [5b]	30.4%	30.6%	–	–	–
COc1ccc(CNc2nc(Cl)nc3cc(Br)ccc23)cc1 [5a]	48.8%	22.7%	–	–	–
COc1ccc(-c2ccc3c(NCc4ccc(F)c(F)c4)nc(N4CCNCC4)nc3c2)cc1 [7m]	-6.25%	11.7%	–	–	–
Cc1ccc(Nc2nc(/C=C/c3ccccc3)nc3ccccc23)cc1 [3b]	95.2%	3.54%	43 ± 10.3 µM	–	–
COc1ccc(CNc2nc(N3CCOCC3)nc3cc(-c4ccc(F)cc4)ccc23)cc1 [7e]	-5.92%	-7.39%	–	–	–
Fc1cc(F)c(Nc2nc(/C=C/c3ccccc3)nc3ccccc23)c(F)c1 [3q]	24.9%	12.6%	–	–	–
COc1ccc(-c2ccc3c(NCc4ccc(F)c(F)c4)nc(Cl)nc3c2)cc1 [6d]	31.6%	26.5%	–	–	–
COc1ccc(CNc2nc(Cl)nc3cc(-c4ccc(F)cc4)ccc23)cc1 [6b]	26.6%	27.6%	–	–	–
Cc1cc(C)c(Nc2nc(/C=C/c3ccccc3)nc3ccccc23)c(C)c1 [3p]	38%	-22.9%	–	–	–
Cc1cc(F)cc(Br)c1Nc1nc(/C=C/c2ccccc2)nc2ccccc12 [3r]	30.6%	-1.77%	–	–	–
CC(C)(C)c1ccc(Nc2nc(/C=C/c3ccccc3)nc3ccccc23)cc1 [3m]	14%	9.92%	–	–	–
Cc1ccc(Nc2nc(/C=C/c3ccccc3)nc3ccccc23)cc1C [3a]	50.5%	-38.7%	–	–	–
COc1ccc(CNc2nc(N3CCOCC3)nc3cc(-c4cccs4)ccc23)cc1 [7i]	14.8%	-5.36%	–	–	inactive
C(=C\c1nc(Nc2cccc3cccnc23)c2ccccc2n1)/c1ccccc1 [3h]	31.5%	3.02%	–	–	–
Fc1ccc(CNc2nc(Cl)nc3cc(-c4cccs4)ccc23)cc1F [6e]	96.5%	39.9%	> 50 µM	did not inhibit	–
CCCOc1ccc(Nc2nc(/C=C/c3ccccc3)nc3ccccc23)cc1 [3o]	7.33%	-4.79%	–	–	–
